For one series, the system named is A549 cells. The series is described as follows: MTT anti-proliferative assay, A549. The class given is cell-based. The settings on record: Homo sapiens, read-out: IC50 ± SD, A549. The procedure:
(§1) The antiproliferative activity of the target indazole derivatives was evaluated against a panel of human cancer cell lines (human chronic myeloid leukemia cell lines K562; human lung cancer cell lines A549; human prostate cancer cell lines PC-3; human hepatoma cell lines HepG-2) in vitro, and human embryonic kidney cell lines HEK-293 were used to evaluate the cytotoxicity of a normal cell with high activity derivatives by MTT assay. Moreover, 5-fluorouracil (5-Fu), a broad-spectrum drug antitumor drug with therapeutic effects on various cancers, was used as a positive control.
(§2) Lung (A549), chronic myeloid leukemia (K562), prostate (PC3), and live (Hep-G2) cells were purchased from the Cell Bank of the Chinese Academy of Sciences (Kunming, China). A549, K562, and PC-3 cells were cultured in RPMI-1640 medium and the liver cells Hep-G2 were cultured in MEM medium. All mediums were supplemented with 10% FBS, 100 μg/mL penicillin and 100 μg/mL streptomycin. All cells were cultivated in a 5% CO2 incubator at 37 °C.
(§3) To investigate the anticancer activity of indazole derivatives, A549, K562, PC3, and Hep-G2 cells were treated with targets compounds respectively for 48 h in a range of concentrations (from 0.625 to 10 μM) and subjected to a proliferation assay using the MTT assay. Exponentially growing cells were seeded at a density of 5000 cells per well in 96-well plates containing 100 μL of fresh growth medium. After allowing the cells to attach for 24 h, target compounds were added. After incubation for 48 h, viable cells were stained with MTT (0.5 mg/mL) for 4 h, and the produced formazan crystals were dissolved with 150 µL of dimethyl sulfoxide. Absorbance was measured at 490 nm using an automated microplate reader (Tecan, Infinite M200 Pro, Männedorf, Switzerland). The relative cell viability was calculated according to the following equation: Cell viability%=experimental OD value/control OD value×100%Cell inhibition%=control OD value−experimental OD value/control OD value×100%
(§4) Cell inhibition%=control OD value−experimental OD value/control OD value×100%
On the technique in general: Formazan colour is commonly taken as a measure of viable cells.

The next series relates to K562 cells. The series is described as follows: MTT anti-proliferative assay, K562. The settings on record: Homo sapiens, read-out: IC50 ± SD, K562. It is filed as cell-based. On the procedure: as §1, §2, §3, §4
The test system of a further series is Hep-G2 cells. Put plainly: MTT anti-proliferative assay, Hep-G2. The class given is cell-based. The settings on record: Homo sapiens, HepG2, 48 h, read-out: IC50 ± SD, Hep-G2. On the procedure:
as §1, §2, §3, §4

Another series relates to PC-3 cells. The series is described as follows: MTT anti-proliferative assay, PC-3. Conditions: Homo sapiens, PC-3, 48 h. It is filed as cell-based. On the procedure:
as §1, §2
as §3, with “Exponentially” for “To investigate the anticancer activity of indazole derivatives, A549, K562, PC3, and Hep-G2 cells were treated with targets compounds respectively for 48 h in a range of concentrations (from 0.625 to 10 μM) and subjected to a proliferation assay using the MTT assay. Exponentially”
as §4

Setting [1] is: Table 1, read-out: IC50 ± SD, PC-3.
Where [2] appears, read: Table 2, read-out: IC50 ± SD, PC-3.

What is called IC50 is the point on the concentration scale where inhibition reaches its midpoint. In general, melting point refers to the temperature of the solid-liquid transition.

Like-named read-outs stand apart in the source and are kept apart here.

Take `O=C(CSc1ncccn1)Nc1n[nH]c2ccc(-c3cc(F)cc(F)c3)cc12` [5q]: the 50% inhibitory concentration (IC50) amounted to 16.2 ± 1.46 µM with A549 cells (Table 1, 48 h); 14.3 ± 2.13 µM in the series with K562 cells (Table 1, 48 h); 6.3 ± 0.03 µM in the series on Hep-G2 cells (Table 1, 48 h); 7.81 ± 0.64 µM with PC-3 cells (setting [1]).

`COc1ccc(-c2ccc3[nH]nc(NC(=O)CN4CCN(c5ccc(Cl)c(Cl)c5)CC4)c3c2)cc1` [6b] registered a melting point of 200 to 201 °C. The IC50 with A549 cells (Table 2, 48 h) came out at 19.9 ± 1.15 µM. The concentration for half-maximal inhibition (IC50) in the series with K562 cells (Table 2, 48 h) amounted to 18.6 ± 2.14 µM. Further, the concentration for half-maximal inhibition (IC50) with Hep-G2 cells (Table 2, 48 h) was 1.69 ± 0.68 µM. Also, the IC50 with PC-3 cells (setting [2]) is 9.69 ± 0.26 µM.

In turn, `COc1ccc(-c2ccc3[nH]nc(NC(=O)CN4CCN(c5ccc(OC)cc5)CC4)c3c2)cc1` [6c] came in with a melting point of 188 to 189 °C. In the series with A549 cells (Table 2, 48 h), the IC50 is 24 ± 2.92 µM. In the series with K562 cells (Table 2, 48 h), the IC50 was over 50 µM. Moreover, in the series on Hep-G2 cells (Table 2, 48 h), the IC50 is 1.23 ± 0.39 µM. In addition, the 50% inhibitory concentration (IC50) with PC-3 cells (setting [2]) is over 50 µM.

The compound `COc1ccc(-c2ccc3[nH]nc(NC(=O)CN4CCN(c5ccc(C(F)(F)F)cc5)CC4)c3c2)cc1` [6d] came in with a melting point of 187 to 189 °C. The IC50 in the series with A549 cells (Table 2, 48 h) amounted to 17.6 ± 4.11 µM. Moreover, the IC50 in the series on K562 cells (Table 2, 48 h) turned out to be 18.2 ± 2.91 µM. In the series on Hep-G2 cells (Table 2, 48 h), the concentration for half-maximal inhibition (IC50) was over 50 µM. Moreover, the IC50 with PC-3 cells (setting [2]) is 17.6 ± 1.4 µM.

The compound `COc1ccc(-c2ccc3[nH]nc(NC(=O)CN4CCN(Cc5ccc(Cl)cc5)CC4)c3c2)cc1` [6e] returned a melting point of 140 to 141 °C. For the same compound, in the series on A549 cells (Table 2, 48 h), the IC50 was determined as 12.8 ± 0.78 µM. Besides, in the series on K562 cells (Table 2, 48 h), the IC50 stood at 8.85 ± 0.26 µM. Also, the IC50 in the series on Hep-G2 cells (Table 2, 48 h) is over 50 µM. The IC50 with PC-3 cells (setting [2]) amounted to 7.15 ± 0.14 µM.

For `O=C(CN1CCN(c2ccc(Cl)c(Cl)c2)CC1)Nc1n[nH]c2ccc(-c3cc(F)cc(F)c3)cc12` [6f], the IC50 is over 50 µM with A549 cells (Table 2, 48 h); 11.9 ± 0.85 µM with K562 cells (Table 2, 48 h); 9.56 ± 0.84 µM with Hep-G2 cells (Table 2, 48 h); 41.7 ± 27.9 µM in the series on PC-3 cells (setting [2]).

In turn, `O=C(CN1CCN(c2ccc(C(F)(F)F)cc2)CC1)Nc1n[nH]c2ccc(-c3cc(F)cc(F)c3)cc12` [6g] came in with a melting point of 170 to 171 °C. For the same compound, the IC50 with A549 cells (Table 2, 48 h) is 15.8 ± 2.98 µM. In addition, the IC50 in the series with K562 cells (Table 2, 48 h) worked out at 6.61 ± 0.38 µM. Also, in the series on Hep-G2 cells (Table 2, 48 h), the IC50 is 2.35 ± 0.96 µM. The concentration for half-maximal inhibition (IC50) in the series with PC-3 cells (setting [2]) came to 6.81 ± 1.09 µM.

Turning to `O=C(CN1CCN(c2ccc(F)cc2F)CC1)Nc1n[nH]c2ccc(-c3cc(F)cc(F)c3)cc12` [6h], the half-inhibitory concentration (IC50) was found to be 15.1 ± 1.36 µM in the series with A549 cells (Table 2, 48 h); 13.2 ± 1.75 µM in the series on K562 cells (Table 2, 48 h); 2.75 ± 0.78 µM in the series with Hep-G2 cells (Table 2, 48 h); 8.63 ± 0.57 µM in the series with PC-3 cells (setting [2]).

The compound `O=C(CN1CCN(c2ccc(Br)cc2)CC1)Nc1n[nH]c2ccc(-c3cc(F)cc(F)c3)cc12` [6i] displayed a melting point of 184 to 186 °C. For the same compound, the IC50 with A549 cells (Table 2, 48 h) was 28.6 ± 2.52 µM. The concentration for half-maximal inhibition (IC50) in the series on K562 cells (Table 2, 48 h) is 13.2 ± 1.44 µM. Also, in the series with Hep-G2 cells (Table 2, 48 h), the IC50 was found to be 2.58 ± 0.42 µM. For the same compound, in the series on PC-3 cells (setting [2]), the IC50 was determined as 12.8 ± 2.95 µM.

`O=C(CN1CCN(c2ccc(Cl)cc2)CC1)Nc1n[nH]c2ccc(-c3cc(F)cc(F)c3)cc12` [6j] yielded a melting point of 179 to 181 °C. For the same compound, the IC50 in the series with A549 cells (Table 2, 48 h) was 20.3 ± 1.24 µM. Moreover, the IC50 with K562 cells (Table 2, 48 h) is 7.78 ± 0.1 µM. For the same compound, the half-maximal inhibitory concentration (IC50) with Hep-G2 cells (Table 2, 48 h) was found to be 3.87 ± 0.47 µM. In addition, the IC50 in the series with PC-3 cells (setting [2]) was 7.58 ± 1.01 µM.

As for `O=C(CN1CCN(c2ccc(Cl)c(Cl)c2)CC1)Nc1n[nH]c2ccc(-c3ccc(Cl)c(F)c3)cc12` [6m], the half-maximal inhibitory concentration (IC50) in the series with A549 cells (Table 2, 48 h) was 22.6 ± 6.53 µM; in the series on K562 cells (Table 2, 48 h) it was 17.9 ± 3.14 µM; in the series with Hep-G2 cells (Table 2, 48 h) it was 1.51 ± 0.25 µM; in the series on PC-3 cells (setting [2]), 19.9 ± 2.71 µM.

In the case of `O=C(CN1CCN(c2ccc(Br)cc2)CC1)Nc1n[nH]c2ccc(-c3ccc(Cl)c(Cl)c3)cc12` [6r], the half-maximal inhibitory concentration (IC50) in the series with A549 cells (Table 2, 48 h) was 15.8 ± 1.38 µM; in the series on K562 cells (Table 2, 48 h) it was 10 ± 0.94 µM; with Hep-G2 cells (Table 2, 48 h) it was over 50 µM; with PC-3 cells (setting [2]), 27.9 ± 26.1 µM.

In the case of `COc1ccc(SCC(=O)Nc2n[nH]c3ccc(-c4cccc(F)c4)cc23)cc1` [compound 5a], the IC50 was 4.66 ± 0.45 µM with A549 cells (Table 1, 48 h); 9.32 ± 0.59 µM in the series on K562 cells (Table 1, 48 h); 12.7 ± 1.31 µM with Hep-G2 cells (Table 1, 48 h); 15.5 ± 1.33 µM in the series on PC-3 cells (setting [1]).

Take `O=C(CN1CCN(c2ccc(Cl)c(Cl)c2)CC1)Nc1n[nH]c2ccc(-c3cccc(F)c3)cc12` [compound 6a]: the concentration for half-maximal inhibition (IC50) is 8.21 ± 0.56 µM in the series with A549 cells (Table 2, 48 h); 5.19 ± 0.29 µM in the series with K562 cells (Table 2, 48 h); 5.62 ± 1.76 µM in the series on Hep-G2 cells (Table 2, 48 h); 6.12 ± 0.1 µM with PC-3 cells (setting [2]).

The values above are taken from paper PMC10218234, “Design, Synthesis and Antitumor Activity of 1H-indazole-3-amine Derivatives” (International Journal of Molecular Sciences, 2023).
